Assay results from patent publication US20240239741A1, “META-ESTER AROMATIC DIAMINES, METHOD FOR PRODUCING SAME, AND POLYIMIDE HAVING SAID META-ESTER AROMATIC DIAMINES AS RAW MATERIAL” (SEIKA CORPORATION, priority 2021, published 2024).
Where two headings read alike, the source gives them in different places.

Test: Solubility of Diamine in various kinds of solvents
Format: physicochemical
Conditions: for solubility: organic solvent or mixture, thermodynamic from solid, Sample 30 mg/solvent 2 mL
Procedure: Melting points and solubilities in various kinds of solvents of the diamines obtained in the above-described Examples and Comparative Examples are shown in Table 1 below. In the following Table 1, the evaluation +++ indicates soluble at room temperature, the evaluation ++ indicates soluble by heating, the evaluation + indicates half-soluble by heating, and the evaluation − indicates insoluble in solvent.
Sample 30 mg/solvent 2 mL, the evaluation +++ indicates soluble at room temperature, the evaluation ++ indicates soluble by heating, the evaluation + indicates half-soluble by heating, and the evaluation − indicates insoluble.

[1] = MC (methyl cellosolve), MC (methyl cello solve), read-out: Solubility in MC
[2] = Acetone, read-out: Solubility in Acetone
[3] = Acetonitrile, read-out: Solubility in Acetonitrile
[4] = Chloroform, read-out: Solubility in Chloroform
[5] = DMF (N,N-dimethylformamide), read-out: Solubility in DMF
[6] = DMSO (dimethylsulfoxide), read-out: Solubility in DMSO
[7] = Ethyl acetate, read-out: Solubility in Ethyl acetate
[8] = Isopropanol, read-out: Solubility in Isopropanol
[9] = THF, read-out: Solubility in THF
[10] = Toluene, read-out: Solubility in Toluene
[11] = m-cresol, read-out: Solubility in m-cresol
[12] = Methanol, read-out: Solubility in Methanol

| Structure (SMILES) | Solubility in the various kinds of solvents (in words) | solubility [1] | solubility [2] | solubility [3] | solubility [4] | solubility [5] | solubility [6] | solubility [7] | solubility [8] | solubility [9] | solubility [10] | solubility [11] | solubility [12] |
| --- | --- | --- | --- | --- | --- | --- | --- | --- | --- | --- | --- | --- | --- |
| Nc1ccc(C(=O)Oc2ccc(OC(=O)c3ccc(N)cc3)cc2)cc1 [Com. Ex. 1, 1,4-bis(4-aminobenzoyloxy)benzene, reference compound] | hot-dissolved only in DMF | < 15 mg/mL | < 15 mg/mL | < 15 mg/mL | < 15 mg/mL | < 15 mg/mL | < 15 mg/mL | < 15 mg/mL | < 15 mg/mL | < 15 mg/mL | < 15 mg/mL | < 15 mg/mL |  |
| Cc1cc(OC(=O)c2cccc(N)c2)c(C)c(C)c1OC(=O)c1cccc(N)c1 [Example 8, 1,2,4-trimethyl-3,6-bis(3-aminobenzoyloxy)benzene] |  | > 15 mg/mL | > 15 mg/mL | > 15 mg/mL | > 15 mg/mL | > 15 mg/mL | > 15 mg/mL | > 15 mg/mL | < 15 mg/mL | > 15 mg/mL | < 15 mg/mL | > 15 mg/mL | < 15 mg/mL |
| Cc1cc(OC(=O)c2ccc(N)cc2)ccc1OC(=O)c1ccc(N)cc1 [Com. Ex. 2, 2,5-bis(4-aminobenzoyloxy)toluene, reference compound] | hot-dissolved barely in a high-polar solvent | < 15 mg/mL | < 15 mg/mL | < 15 mg/mL | < 15 mg/mL | > 15 mg/mL | < 15 mg/mL | < 15 mg/mL | < 15 mg/mL | < 15 mg/mL | < 15 mg/mL | < 15 mg/mL | < 15 mg/mL |
| Nc1cccc(C(=O)Oc2ccc(S(=O)(=O)c3ccc(OC(=O)c4cccc(N)c4)cc3)cc2)c1 [Example 4, bis[4-(3-aminobenzoyloxy)phenyl]sulfone] |  | < 15 mg/mL | < 15 mg/mL | < 15 mg/mL | < 15 mg/mL | > 15 mg/mL | > 15 mg/mL | < 15 mg/mL | < 15 mg/mL | < 15 mg/mL | < 15 mg/mL | > 15 mg/mL | < 15 mg/mL |
| Cc1cc(OC(=O)c2cccc(N)c2)ccc1OC(=O)c1cccc(N)c1 [Example 6, 1-methyl-2,5-bis(3-aminobenzoyloxy)benzene] |  | > 15 mg/mL | > 15 mg/mL | > 15 mg/mL | > 15 mg/mL | > 15 mg/mL | > 15 mg/mL | > 15 mg/mL | < 15 mg/mL | > 15 mg/mL | < 15 mg/mL | > 15 mg/mL | < 15 mg/mL |
| Nc1cccc(C(=O)Oc2ccc(C(c3ccc(OC(=O)c4cccc(N)c4)cc3)(C(F)(F)F)C(F)(F)F)cc2)c1 [Example 2, 2,2′-bis[4-(3-aminobenzoyloxy)phenyl]hexafluoropropane] | easily dissolved in various solvents | > 15 mg/mL | > 15 mg/mL | > 15 mg/mL | < 15 mg/mL | > 15 mg/mL | > 15 mg/mL | > 15 mg/mL | < 15 mg/mL | > 15 mg/mL | < 15 mg/mL | > 15 mg/mL | > 15 mg/mL |
